Results on 27 molecules are retold here after patent US7875650B2, “Compounds and methods to increase anti-P-glycoprotein activity of baicalein by alkylation on the A ring” (Yale University, priority 2004, dated 2011).

SMILES strings stand for the structures. Where two headings read alike, the source gives them in different places.

Data set [1] concerns the target T1, P-gp 170 (Homo sapiens, UniProt P08183). The data set can be described thus: in vitro. The conditions noted are these: for Amax (maximum accumulation of intracellular vinblastine), fold higher than control: human, 60 min. The text has this:
(§1) The KB/MDR cells, which overexpress human P-gp 170 protein, were used to evaluate the anti-P-gp 170 activity of drugs. […] The concentration of compound required to achieve 50% maximum accumulation of vinblastine is presented as the EC50 value. The maximum accumulation of intracellular vinblastine caused by the compounds in one hour is expressed as Amax (picomoles/10^6 cells). The cell growth inhibitory activity of compounds is presented as the concentration required to inhibit 50% growth of KB or KB/MDR cell lines (IC50) following three days of compound treatment.
(§2) Vinblastine uptake by the KB/MDR cells. KB/MDR cells,^37 which overexpress human P-gp 170 protein, were seeded into 24-well tissue culture plates in RPMI 1640 medium plus 10% fetal bovine serum for 24 hours without the selecting agent doxorubicin (37 nM). The cells were then treated with [^3H]vinblastine plus synthetic flavones in HBSS for 60 minutes. The cells were washed twice with ice-cold PBS, harvested with 1 N NaOH, neutralized with 1 N HCl. The cell aliquots were transferred to scintillation vials and counted with a […] (Beckman, model LS 5000) after adding 10 mL scintillation fluids (SafeScint, American Bioanalytical Co., Natick, Mass.). Data presented are the mean of three independent experiments.

The subject of the next data set is KB/MDR cells. The data set can be described thus: Growth inhibitory assay, KB/MDR cells. It counts as cell-based, human. Particulars: 3 days. Here is the method:
(§3) The cells were then fixed and stained with methylene blue in 50% MeOH, washed thoroughly with tap water, and dissolved with 0.5 mL 0.5% sarcosyl.^38 The amount of cellular protein, which is proportional to the cell number, is estimated by the absorption (OD595nm). The growth inhibitory assay, which is presented as an IC50 value, represents the concentration of compound required to inhibit 50% of cell growth. The cell doubling time of KB and KB/MDR cells is about 20 to 24 hours. The data presented are the mean of three independent experiments.

The subject of another data set is KB cells. The data set can be described thus: Growth inhibitory assay, KB cells. It counts as cell-based, human. The conditions noted are these: 3 days. Here is the method:
as §3

Data set [2] concerns the target T1, P-gp 170.
Data set [3] addresses P-gp 170 (human P-glycoprotein) (Homo sapiens, UniProt P08183). Nature of the data set: in vitro. The conditions noted are these: human.
Description: as §1, §2

The target in the next data set is P-gp (Homo sapiens, UniProt P08183). Particulars: their (Boumendjel et al.) experiments; cited from earlier work.
The target in data set [4] is T1, P-gp 170. The data set can be described thus: Inhibitory activity of Scute and its components against P-gp 170 efflux action (previous study).

T1 sequence (P08183 whole entry): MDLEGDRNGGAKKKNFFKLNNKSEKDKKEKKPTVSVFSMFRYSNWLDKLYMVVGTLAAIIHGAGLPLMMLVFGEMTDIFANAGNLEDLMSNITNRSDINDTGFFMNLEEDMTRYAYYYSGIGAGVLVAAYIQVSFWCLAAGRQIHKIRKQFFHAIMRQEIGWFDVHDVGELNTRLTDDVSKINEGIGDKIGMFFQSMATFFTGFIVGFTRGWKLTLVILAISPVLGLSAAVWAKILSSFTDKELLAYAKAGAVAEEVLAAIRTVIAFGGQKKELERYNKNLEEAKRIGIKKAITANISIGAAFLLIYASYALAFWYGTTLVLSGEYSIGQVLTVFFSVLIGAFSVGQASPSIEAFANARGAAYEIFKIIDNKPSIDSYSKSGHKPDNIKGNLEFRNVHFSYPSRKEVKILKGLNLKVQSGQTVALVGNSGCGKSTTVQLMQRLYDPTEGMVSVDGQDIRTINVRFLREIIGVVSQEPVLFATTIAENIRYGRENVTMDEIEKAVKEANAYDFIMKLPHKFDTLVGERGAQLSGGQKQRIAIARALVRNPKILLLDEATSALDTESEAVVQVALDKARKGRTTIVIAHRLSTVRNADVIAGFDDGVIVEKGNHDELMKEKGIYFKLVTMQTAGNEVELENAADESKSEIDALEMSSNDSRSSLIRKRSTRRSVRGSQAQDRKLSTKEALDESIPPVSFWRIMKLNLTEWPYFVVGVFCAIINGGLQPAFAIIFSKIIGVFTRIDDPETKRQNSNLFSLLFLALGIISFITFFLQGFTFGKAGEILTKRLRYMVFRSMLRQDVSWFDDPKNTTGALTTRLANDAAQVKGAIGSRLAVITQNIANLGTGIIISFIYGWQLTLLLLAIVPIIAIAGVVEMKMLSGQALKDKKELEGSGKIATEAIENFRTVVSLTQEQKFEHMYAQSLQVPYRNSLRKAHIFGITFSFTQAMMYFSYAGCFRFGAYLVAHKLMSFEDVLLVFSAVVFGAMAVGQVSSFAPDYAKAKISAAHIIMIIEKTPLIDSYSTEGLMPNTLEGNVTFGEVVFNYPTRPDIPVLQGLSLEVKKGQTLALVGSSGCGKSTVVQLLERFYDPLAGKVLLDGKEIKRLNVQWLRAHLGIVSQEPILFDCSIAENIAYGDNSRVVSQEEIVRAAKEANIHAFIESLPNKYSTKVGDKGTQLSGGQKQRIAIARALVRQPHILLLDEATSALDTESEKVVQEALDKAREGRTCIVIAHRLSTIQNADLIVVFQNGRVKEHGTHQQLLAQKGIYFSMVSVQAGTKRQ
Chain of P-gp 170 (human P-glycoprotein) (P08183 whole entry): as above
Chain of P-gp (P08183 whole entry): as above

`CC(=O)Oc1cc2oc(-c3ccccc3)cc(=O)c2c(O)c1OCc1ccccc1` [Compound 10, 7-Acetoxy-6-(benzoxy)-5-hydroxyflavone]: the “anti-P-gp 170 efflux activity (EC50, Amax) in words” value (“anti-P-gp 170 efflux activity” for short) at P-gp 170 [1] was “low EC50 but higher Amax in comparison with baicalein”.

As for `O=c1cc(-c2ccccc2)oc2cc(OCc3ccccc3)c(OCc3ccccc3)c(O)c12` [Compound 16, 6,7-(Dibenzoxy)-5-hydroxy-flavone], the cytotoxicity in words entry was “decreased and lost” in the data set with KB/MDR cells; “decreased and lost” with KB cells.

Take `CCCCOc1cc2oc(-c3ccccc3)cc(=O)c2c(OC)c1OCCCC` [Compound 46, 6,7-Dibutoxy-5-methoxyflavone]: the melting point lay in the range of 103 to 105 °C.

As to `CCCOc1c(OC)cc2oc(-c3ccccc3)cc(=O)c2c1O` [Compound 21, 5-Hydroxy-7-methoxy-6-propoxyflavone], on P-gp 170 [1], the EC50 stood at 1200 nM and the “Amax (maximum accumulation of intracellular vinblastine), fold higher than control” value (from here on “Amax … fold higher than control”) was 9 fold.

In turn, `CCCOc1c(O)cc2oc(-c3ccccc3)cc(=O)c2c1O` [Compound 17, 5,7-Dihydroxy-6-propoxyflavone] gave a melting point of 162 to 163 °C. At P-gp 170 [1], the EC50 stood at 2000 nM and the “Amax … fold higher than control” value came out at 9 fold.

Turning to `O=c1cc(-c2ccccc2)oc2cc(O)c(OCc3ccccc3)c(O)c12` [Compound 15, 6-(Benzoxy)-5,7-dihydroxyflavone], at P-gp 170 [1], the “anti-P-gp 170 efflux activity” value is listed as “low EC50 but higher Amax in comparison with baicalein”.

As to `COc1cc2oc(-c3ccccc3)cc(=O)c2c(OC)c1OC(C)=O` [Compound 5, 6-Acetoxy-5,7-dimethoxyflavone], the melting point lay in the range of 208 to 210 °C.

`CCOc1cc2oc(-c3ccccc3)cc(=O)c2c(O)c1OCC` [Compound 33, 6,7-Diethoxy-5-hydroxyflavone] registered a concentration for a half-maximal effect (EC50) at P-gp 170 [1] of 1800 nM.

`CC(=O)Oc1cc2oc(-c3ccccc3)cc(=O)c2c(O)c1OC(C)=O` [Compound 3, 6,7-Diacetoxy-5-hydroxyflavone]: the “EC50 relative to the parental compound (baicalein)” value on P-gp 170 [1] (KB/MDR cells) is “one-fourth”.

On to `CC(=O)Oc1c(OCc2ccccc2)cc2oc(-c3ccccc3)cc(=O)c2c1OC(C)=O` [Compound 14, 5,6Diacetoxy-7-(benzoxy)flavone], for which the melting point was in the range of 174 to 175 °C. Further, the “anti-P-gp 170 efflux activity” value at P-gp 170 [1] is listed as “low EC50 but higher Amax in comparison with baicalein”.

In the case of `CC(=O)Oc1c(O)cc2oc(-c3ccccc3)cc(=O)c2c1O` [Compound 2, 6-Acetoxy-5,7-dihydroxyflavone], the melting point lay within 205 to 207 °C. Further, at P-gp 170 [1], the “EC50 relative to the parental compound (baicalein)” value is given as “one-fourth”.

As for `COc1c(O)cc(O)c2c(=O)cc(-c3ccccc3)oc12` [wogonin, 5,7-dihydroxy-8-methoxyflavone], the “anti-P-gp 170 activity in words” value on P-gp 170 [2] was “lack inhibitory activity”.

`CC(=O)Oc1c(OC(C)=O)c(O)c2c(=O)cc(-c3ccccc3)oc2c1Br` [Compound 24, 6,7-Diacetoxy-8-bromo-5-hydroxyflavone] registered a melting point of 244 to 246 °C. For the same molecule, the “anti-P-gp 170 efflux activity” value at P-gp 170 [1] was “less favorable activity against P-gp 170 activity than compound 3”.

The molecule `O=c1cc(-c2ccccc2)oc2c(Br)c(O)c(O)c(O)c12` [Compound 25, 8-Bromo-5,6,7-trihydroxyflavone] showed an EC50 at 60 min in data set [3] of 15000 nM. Also, the “anti-P-gp 170 efflux activity” value on P-gp 170 [1] is on record as “Amax did not change”.

For `COc1c2c(cc3oc(-c4ccccc4)cc(=O)c13)OC(c1ccccc1)(c1ccccc1)O2` [Compound 13, 6,7-(Diphenylmethylenedioxy)-5-methoxyflavone], the cytotoxicity in words result with KB/MDR cells and with KB cells was “decreased” throughout. Besides, the “anti-P-gp 170 efflux activity” value at P-gp 170 [1] was “decreased”.

As for `O=c1cc(-c2ccccc2)oc2cc(OCc3ccccc3)cc(O)c12` [7-benzoxy-5-hydroxyflavone], on P-gp, the “Amax / drug accumulation as compared to cyclosporin A” value is reported as 25%.

`COc1cc2oc(-c3ccccc3)cc(=O)c2c(OC)c1OC` [Compound 6, 5,6,7-Trimethoxyflavone] displayed an EC50 at P-gp 170 [1] of 4600 nM.

Regarding `CCOc1c(OC)cc2oc(-c3ccccc3)cc(=O)c2c1O` [Compound 38, 6-Ethoxy-5-hydroxy-7-methoxyflavone], the melting point was 133 to 134 °C.

In the case of `CC(=O)Oc1cc2oc(-c3ccccc3)cc(=O)c2c(OCc2ccccc2)c1OC(C)=O` [Compound 9, 6,7-Diacetoxy-5-(benzoxy)flavone], the melting point was in the range of 175 to 177 °C. For the same molecule, the “anti-P-gp 170 efflux activity” value on P-gp 170 [1] is “low EC50 but higher Amax in comparison with baicalein”.

Molecule `CCCOc1cc2oc(-c3ccccc3)cc(=O)c2c(O)c1OCCC` [Compound 18, 5-Hydroxy-6,7-dipropoxyflavone] showed an EC50 at 60 min in data set [3] of 1400 nM. Besides, on P-gp 170 [1], the “Amax … fold higher than control” value stood at 10 fold.

In turn, `CCCOc1cc2oc(-c3ccccc3)cc(=O)c2c(OC)c1OCCC` [Compound 23, 5-Methoxy-6,7-dipropoxyflavone] displayed a concentration giving a half-maximal response (EC50) on P-gp 170 [1] of 900 nM.

With `CCOc1cc2oc(-c3ccccc3)cc(=O)c2c(OC)c1OCC`, the melting point lay within 126 to 128 °C.

The molecule `COc1cc2oc(-c3ccccc3)cc(=O)c2c(O)c1OC` [Compound 8, 5-Hydroxy-6,7-dimethoxyflavone] had an EC50 at P-gp 170 [1] of 5500 nM.

For `COc1c(O[C@@H]2O[C@H](C(=O)O)[C@@H](O)[C@H](O)[C@H]2O)cc(O)c2c(=O)cc(-c3ccccc3)oc12` [wogonoside], on P-gp 170 [4], the “anti-P-gp 170 activity in words” value is on record as “lack inhibitory activity”.

In turn, `CCCCOc1cc2oc(-c3ccccc3)cc(=O)c2c(O)c1OCCCC` [Compound 45, 6,7-Dibutoxy-5-hydroxyflavone] had a melting point of 116 to 117 °C.

In the case of `CCOc1c(O)cc2oc(-c3ccccc3)cc(=O)c2c1O` [Compound 32, 6-Ethoxy-5,7-dihydroxyflavone], on P-gp 170 [1], the EC50 was 2300 nM.

As to `O=c1cc(-c2ccccc2)oc2cc(O)c(O)c(O)c12` [Compound 1, baicalein], on P-gp 170 [2], the “anti-P-gp 170 activity in words” value is “active component”.

In general, melting point refers to the temperature, or range, at which the solid turns liquid. In general, EC50 refers to the concentration needed to bring the measured effect to its halfway point. A low value points to an effect from little substance.
